From patent US6573275B1, “Bicyclic amines” (Syngenta Limited, priority 1995, dated 2003)

Test system: peach aphid (Myzus persicae)
Assay: Insecticidal test against peach aphid, infested Chinese cabbage leaves sprayed
Assay type: in vivo
Settings: peach aphid (Myzus persicae) on Chinese cabbage leaves, sprayed with 500 ppm composition unless otherwise stated, mortality assessed after 3 days
Method in brief: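 Aphid-infested Chinese cabbage leaves were sprayed with compound at 500 ppm unless otherwise stated, formulated in acetone/ethanol diluted with water containing 0.05% Synperonic NP8. Mortality was assessed after 3 days.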

Structure (SMILES) | Score (grading of mortality)
CC(F)(CN1C2CCC1CC(C#N)(c1cncc(Cl)c1)C2)c1ccccc1 (stereo not drawn) [Compound 179, exo-3-(5-chloropyrid-3-yl)-endo-3-cyano-8-(2-fluoro-2-phenylprop-1-yl)-8-azabicyclo[3.2.1]octane] | A (A indicates 80-100% mortality)
CC(C)CC(C)(C)CCN1C2CCC1CC(C#N)(c1cncc(Cl)c1)C2 (stereo not shown) [Compound 180] | A (A indicates 80-100% mortality)
C=COC(=O)N1C2CCC1CC(C#N)(c1cncc(Br)c1)C2 (stereo not shown) [Compound 181] | A (A indicates 80-100% mortality)
N#CC1(c2cncc(Cl)c2)CC2CCC(C1)N2c1ncccn1 (stereo not shown) [Compound 182] | A (A indicates 80-100% mortality)
C=COC(=O)N1C2CCC1CC(C#N)(c1cncc(C(F)(F)F)c1)C2 (stereo not shown) [Compound 183] | A (A indicates 80-100% mortality)
N#CC1(c2cncc(C(F)(F)F)c2)CC2CCC(C1)N2 (stereo not shown) [Compound 184] | A (A indicates 80-100% mortality)
C=COC(=O)N1C2CCC1CC(C#N)(c1cccnc1)C2 (stereo not drawn) [Compound 185, exo-3-(Pyrid-3-yl)-endo-3-cyano-8-(vinyloxycarbonyl)-8-azabicyclo[3.2.1]octane] | A (A indicates 80-100% mortality)
N#CC1(c2cncc(C(F)(F)F)c2)CC2CCC(C1)N2Cc1cccc(Cl)c1 (stereo not shown) [Compound 186] | A (A indicates 80-100% mortality)
N#CC1(c2cncc(Cl)c2)CC2CCC(C1)N2c1ccnc(Cl)n1 (stereo not shown) [Compound 187] | C (C indicates less than 40% mortality)
N#CC1(c2cncc(Cl)c2)CC2CCC(C1)N2c1ccc(C(F)(F)F)cc1 (stereo not shown) [Compound 188] | A (A indicates 80-100% mortality)
CN1C2CCC1CC(C#N)(c1cncc(-n3cccc3)c1)C2 (stereo not drawn) [Compound 189, exo-3-(5-(pyrrol-1-yl)pyrid-3-yl)-endo-3-cyano-8-methyl-8-azabicyclo[3.2.1]octane] | A (A indicates 80-100% mortality)
CC(C)NC(C)(CN1C2CCC1CC(C#N)(c1cncc(Cl)c1)C2)c1ccccc1 (stereo not drawn) [Compound 191, exo-3-(5-chloropyrid-3-yl)-endo-3-cyano-8-(2-(isopropylamino)-2-phenylprop-1-yl)-8-azabicyclo[3.2.1]octane] | A (A indicates 80-100% mortality)
CC(c1ccccc1)(C(O)C#N)N1C2CCC1CC(C#N)(c1cncc(Cl)c1)C2 (stereo not drawn) [Compound 192, exo-3-(5-chloropyrid-3-yl)-endo-3-cyano-8-(1-hydroxy-1-cyano-2-phenylprop-2-yl)-8-azabicyclo[3.2.1]octane] | A (A indicates 80-100% mortality)
C#Cc1cncc(C2(C#N)CC3CCC(C2)N3C)c1 (stereo not drawn) [Compound 193, exo-3-(5-ethynylpyrid-3-yl)-endo-3-cyano-8-methyl-8-azabicyclo[3.2.1]octane] | A (A indicates 80-100% mortality)
CN1C2CCC1CC(C#N)(c1ccncn1)C2 (stereo not shown) [Compound 194] | A (A indicates 80-100% mortality)
C=C(OCC)c1cncc(C2(C#N)CC3CCC(C2)N3C)c1 (stereo not drawn) [Compound 195, exo-3-(5-(1-ethoxyvinyl)pyrid-3-yl)-endo-3-cyano-8-methyl-8-azabicyclo[3.2.1]octane] | A (A indicates 80-100% mortality)
CCC(C)(C)N1C2CCC1CC(C#N)(c1cccnc1)C2 (stereo not shown) [Compound 196] | A (A indicates 80-100% mortality)
CCOC(=O)C(C)N1C2CCC1CC(C#N)(c1cncc(Cl)c1)C2 (stereo not drawn) [Compound 197, exo-3-(5-chloropyrid-3-yl)-endo-3-cyano-8-(1-(ethoxycarbonyl)ethyl)-8-azabicyclo[3.2.1]octane] | A (A indicates 80-100% mortality)
CN1C2CCC1CC(C#N)(c1ncncc1Br)C2 (stereo not shown) [Compound 198] | A (A indicates 80-100% mortality)
N#CC1(c2cncc(C(F)(F)F)c2)CC2CCC(C1)N2CC(F)(F)F (stereo not shown) [Compound 199] | A (A indicates 80-100% mortality)
CN1C2CCC1CC(C#N)(c1cc(-c3ccncn3)ncn1)C2 (stereo not shown) [Compound 200] | A (A indicates 80-100% mortality)
CC(=O)c1cncc(C2(C#N)CC3CCC(C2)N3C)c1 (stereo not drawn) [Compound 201, exo-3-(5-acetylpyrid-3-yl)-endo-3-cyano-8-methyl-8-azabicyclo[3.2.1]octane] | A (A indicates 80-100% mortality)
CN1C2CCC1CC(C#N)(c1cncc(F)c1)C2 (stereo not drawn) [Compound 202, exo-3-(5-fluoropyrid-3-yl)-endo-3-cyano-8-methyl-8-azabicyclo[3.2.1]octane] | A (A indicates 80-100% mortality)
N#CC1(c2cncc(Br)c2)CC2CCC(C1)N2 (stereo not shown) [Compound 203] | A (A indicates 80-100% mortality)
N#CC1(c2cncc(Br)c2)CC2CCC(C1)N2Cc1ccccc1Cl (stereo not shown) [Compound 204] | A (A indicates 80-100% mortality)

Structure (SMILES) | Score (grading of mortality)
CC(C)(c1cccc(Cl)c1)N1C2CCC1CC(C#N)(c1cncc(Cl)c1)C2 (stereo not shown) [Compound 205] | A (A indicates 80-100% mortality)
CN1C2CCC1CC(C#N)(c1cncc(C(C)(C)O)c1)C2 (stereo not shown) [Compound 206] | A (A indicates 80-100% mortality)
C#CC(C)(C)N1C2CCC1CC(C#N)(c1cncc(Cl)c1)C2 (stereo not shown) [Compound 207] | A (A indicates 80-100% mortality)
CCOC(=O)N1C2CCC1CC(C#N)(c1cncc(Br)c1)C2 (stereo not shown) [Compound 208] | A (A indicates 80-100% mortality)
CC(C)(N1C2CCC1CC(C#N)(c1cncc(Cl)c1)C2)C(F)(F)F (stereo not drawn) [Compound 209, exo-3-(5-chloropyrid-3-yl)-endo-3-cyano-8-(1,1-dimethyl-2,2,2-trifluoroethyl)-8-azabicyclo[3.2.1]octane] | A (A indicates 80-100% mortality)
CC(C)CN1C2CCC1CC(C#N)(c1cncc(Br)c1)C2 (stereo not shown) [Compound 210] | A (A indicates 80-100% mortality)
COc1cncc(C2(C#N)CC3CCC(C2)N3C)n1 (stereo not shown) [Compound 214] | A (A indicates 80-100% mortality)
N#CC(c1cccc(Cl)c1)N1C2CCC1CC(C#N)(c1cncc(Cl)c1)C2 (stereo not shown) [Compound 215] | A (A indicates 80-100% mortality)
C=COC(=O)N1C2CCC1CC(C#N)(c1cncc(-c3ccccc3)c1)C2 (stereo not drawn) [Compound 217, exo-3-(5-phenylpyrid-3-yl)-endo-3-cyano-8-(vinyloxycarbonyl)-8-azabicyclo[3.2.1]octane] | A (A indicates 80-100% mortality)
N#CC1(c2cncc(Cl)c2)CC2CCC(C1)N2CCC=C(F)F (stereo not shown) [Compound 218] | A (A indicates 80-100% mortality)
N#CC1(c2cncc(-c3ccccc3)c2)CC2CCC(C1)N2 (stereo not drawn) [Compound 220, exo-3-(5-phenylpyrid-3-yl)-endo-3-cyano-8-azabicyclo[3.2.1]octane] | A (A indicates 80-100% mortality)
C=COC(=O)N1C2CCC1CC(C#N)(c1cncc(C)c1)C2 (stereo not drawn) [Compound 221, exo-3-(5-methylpyrid-3-yl)-endo-3-cyano-8-(vinyloxycarbonyl)-8-azabicyclo[3.2.1]octane] | A (A indicates 80-100% mortality)
C=COC(=O)N1C2CCC1CC(C#N)(c1cncc(C(=O)OCC)c1)C2 (stereo not drawn) [Compound 222, exo-3-(5-(ethoxycarbonyl)pyrid-3-yl)-endo-3-cyano-8-(vinyloxycarbonyl)-8-azabicyclo[3.2.1]octane] | C (C indicates less than 40% mortality)
CC(C)(C#N)N1C2CCC1CC(C#N)(c1cncc(Cl)c1)C2 (stereo not drawn) [Compound 223, exo-3-(5-chloropyrid-3-yl)-endo-3-cyano-8-(2-cyanoprop-2-yl)-8-azabicyclo[3.2.1]octane] | C (C indicates less than 40% mortality)
CCOC(=O)c1cncc(C2(C#N)CC3CCC(C2)N3)c1 (stereo not shown) [Compound 225] | A (A indicates 80-100% mortality)
N#CC1(c2cncc(Cl)c2)CC2CCC(C1)N2Cc1cc(C(F)(F)F)cc(C(F)(F)F)c1 (stereo not shown) [Compound 227] | A (A indicates 80-100% mortality)
N#CC1(c2cncc(Cl)c2)CC2CCC(C1)N2Cc1c(F)cccc1F (stereo not shown) [Compound 228] | A (A indicates 80-100% mortality)
N#CC1(c2cncc(Cl)c2)CC2CCC(C1)N2Cc1cccc(Oc2ccccc2)c1 (stereo not shown) [Compound 229] | A (A indicates 80-100% mortality)
N#CC1(c2cncc(Cl)c2)CC2CCC(C1)N2Cc1ccc(F)c(Br)c1 (stereo not shown) [Compound 230] | A (A indicates 80-100% mortality)
N#CC1(c2cncc(Cl)c2)CC2CCC(C1)N2Cc1cccc(C(=O)c2ccccc2)c1 (stereo not shown) [Compound 231] | A (A indicates 80-100% mortality)
N#CC1(c2cncc(Cl)c2)CC2CCC(C1)N2Cc1cccc(C(=O)c2c(Cl)cccc2Cl)c1 (stereo not shown) [Compound 232] | A (A indicates 80-100% mortality)
N#CC1(c2cncc(Cl)c2)CC2CCC(C1)N2Cc1cccc(C(=O)c2c(F)cccc2F)c1 (stereo not shown) [Compound 233] | A (A indicates 80-100% mortality)
C=CCc1c(F)c(F)c(CN2C3CCC2CC(C#N)(c2cncc(Cl)c2)C3)c(F)c1F (stereo not shown) [Compound 234] | A (A indicates 80-100% mortality)
N#CC1(c2cncc(Cl)c2)CC2CCC(C1)N2Cc1cccc(OC(F)(F)F)c1 (stereo not shown) [Compound 235] | A (A indicates 80-100% mortality)
